These results are taken from US10085958B2, “Bromfenac bioavailability” (BAUSCH & LOMB PHARMA HOLDINGS CORP., priority 2011, dated 2018).

Several values for one entry are separate records, joined by “and”; a condition that tells them apart may be missing. Equal values may be shown once. Read-outs that look alike come from different tables or passages of the source.

The format of data set [1] is in vivo. Conditions: for Mortality/Morbidity: animals found dead or euthanized prior to scheduled euthanasia/number in group.
The nature of data set [2]: Twenty-four hour ocular pharmacokinetics of ^14C-labeled bromfenac following topical instillation. It is filed as in vivo, New Zealand White rabbit. The protocol:
Twenty-four hour ocular pharmacokinetics of a formulation of ^14C-labeled bromfenac following topical instillation in New Zealand White rabbit eyes was evaluated. ^14C-labeled bromfenac was analyzed to verify the radioactive purity prior to use. Dosing solutions were prepared and analyzed after dosing to confirm the radiochemical purity of the dosing solution. The radioactive concentration of the dosing solutions was calculated by liquid scintillation counting (LSC). Treatment parameters are summarized below:
On Day 1, 50 μL of the dosing solution was topically instilled into both eyes of each animal. Animals were weighed at randomization and prior to dosing on Day 1. Animals were euthanized by an intravenous injection of a commercial euthanasia solution at 1 hour±5 minutes, 2 hours±15 minutes, 4 hours±15 minutes, 8 hours±15 minutes, 12 hours±15 minutes, or 24 hours±15 minutes following dosing. After euthanasia, each eye was rinsed with normal saline. Aqueous humor was collected from both eyes and the weight was recorded. The globes were enucleated and frozen in liquid nitrogen. The globes were stored at ≤−70° C. prior to dissection. The iris/ciliary body, lens, vitreous, retina, choroid, sclera, conjunctiva, and cornea were collected from each eye, weighed, and stored at ≤−15° C. prior to analysis. Aqueous humor samples were stored at ≤−15° C. until analyzed.
All radioactivity measurements were performed using a Beckman Liquid Scintillation Spectrometer. The iris/ciliary body, lens, retina, choroid, sclera, conjunctiva, and cornea from each eye were weighed into combustion cones and combusted. Duplicate aliquots of each aqueous humor sample and each vitreous humor sample were transferred to LSC vials using Insta-Gel as the scintillation fluid and the amount of radioactivity was determined.
The dosing solution was prepared by weighing 2.41 mg of ^14C-labeled bromfenac sodium and dissolving into 3 mL diluent to achieve a non-radioactive concentration of 0.7 mg/mL (0.07% w/v) bromfenac free acid, a radioactive concentration of 129.7 μCi/mL, and a pH of 7.8.
On Day 1, 50 μL of the dosing solution was topically instilled into both eyes of each animal. The dosing solution was instilled into the conjunctival sac using a calibrated pipette, and the eyelid was held closed for 5-10 seconds following the dose. Any dosing solution found at the margin of the eyelid after dosing was recovered with a Lasik spear. The time of each dose administration was recorded.
Animals were euthanized by an intravenous injection of a commercial euthanasia solution at 1 hour±5 minutes, 2 hours±15 minutes, 4 hours±15 minutes, 8 hours±15 minutes, 12 hours±15 minutes, or 24 hours±15 minutes following dosing.
After euthanasia, each eye was rinsed with normal saline. Aqueous humor was collected from both eyes and the weight was recorded. The globes were enucleated and frozen in liquid nitrogen. The globes were stored at ≤−70° C. prior to dissection. The iris/ciliary body, lens, vitreous, retina, choroid, sclera, conjunctiva, and cornea were collected from each eye, weighed, and stored at ≤−15° C. prior to analysis. The start time of necropsy was recorded. Aqueous humor samples were stored at ≤−15° C. until analyzed.
The iris/ciliary body, lens, retina, choroid, sclera, conjunctiva, and cornea from each eye were weighed into combustion cones and combusted with the exception of the left eye from Animal No. 731. The retina, choroid, and cornea from this eye were lost during processing and could not be recovered. No radioactivity data is available for these tissues.
Combusted samples were trapped in […] (RJ Harvey) present in LSC vials and the amount of radioactivity determined by LSC. Duplicate aliquots of each aqueous humor sample (approximately 25 μL) were transferred to LSC vials and the amount of radioactivity was determined by LSC using Insta-Gel as the scintillation fluid. […]

The mark [3] stands for this setting: Group A, 1 hr. post-dose, 0.07% pH 7.8, 50 μL per eye topical.
The mark [4] stands for this setting: Group B, 2 hr. post-dose, 0.07% pH 7.8, 50 μL per eye topical.
[5] abbreviates: Group C, 4 hr. post-dose, 0.07% pH 7.8, 50 μL per eye topical.
[6] abbreviates: Group D, 8 hr. post-dose, 0.07% pH 7.8, 50 μL per eye topical.

On to `Nc1c(CC(=O)O)cccc1C(=O)c1ccc(Br)cc1` [^14C-labeled Bromfenac], for which the Mortality/Morbidity in data set [1] (Group A, necropsy 1 hour post-dose) was 0/3; in data set [1] (Group B, necropsy 2 hours post-dose), 0/3; in data set [1] (Group C, necropsy 4 hours post-dose), 0/3; in data set [1] (Group D, necropsy 8 hours post-dose), 0/3; in data set [1] (Group E, necropsy 12 hours post-dose), 0/3; in data set [1] (Group F, necropsy 24 hours post-dose), 0/3. In addition, the “Mortality, whole study” value in data set [1] (all groups, up to 24 hours after 50 μL 0.07% per eye) was “no mortality”. The “Radioactivity detected by LSC in the lens and the vitreous humor” value in data set [2] (24 hour study period) was “very low and close to background values”. Moreover, the “Radioactive residues, Total of eye tissues, Mean” value in data set [2] (setting [3]) is 1.187 Percent Dose; in data set [2] (setting [4]) it was 0.867 Percent Dose; in data set [2] (setting [5]), 0.550 Percent Dose; in data set [2] (setting [6]), 0.228 Percent Dose; in data set [2] (Group E, 12 hr. post-dose, 0.07% pH 7.8, 50 μL per eye topical), 0.107 Percent Dose; in data set [2] (Group F, 24 hr. post-dose, 0.07% pH 7.8, 50 μL per eye topical), 0.034 Percent Dose. For the same compound, the “Radioactive residues, Total of eye tissues, single eyes OD/OS” value in data set [2] (setting [3]) was 0.954 Percent Dose and 1.172 Percent Dose and 1.011 Percent Dose and 1.423 Percent Dose and 1.185 Percent Dose and 1.374 Percent Dose; in data set [2] (setting [4]), 0.923 Percent Dose and 0.762 Percent Dose and 0.782 Percent Dose and 1.246 Percent Dose and 0.725 Percent Dose and 0.761 Percent Dose. Besides, the “Radioactive residues in Conjunctiva, Mean” value in data set [2] (setting [5]) amounted to 0.142 Percent Dose. In addition, the “Radioactive residues in Cornea, Mean” value in data set [2] (setting [6]) is 0.471 ppm (μg-eq/g). The “Tissues with the highest concentrations of drug-derived radioactivity” value in data set [2] (mean ppm (μg/g), 24 hour study period) was “cornea, conjunctiva, and sclera”.
